Paper PMC4076079, “Selective inhibitors of a PAF biosynthetic enzyme lysophosphatidylcholine acyltransferase 2” (Journal of Lipid Research, 2014)

How the values were obtained:
hLPCAT1 = target: T1, hLPCAT1 (Homo sapiens, UniProt Q8NF37); assay: acyltransferase activity assay, DPPC product by LC-MS/MS; assay type: biochemical; conditions: for IC50: 0, 0.2, 0.6, 2, 6 and 20 μM of each compound in triplicate, LC-MS/MS, read-out: IC50, product DPPC, enzyme hLPCAT1; for percentage inhibition, product DPPC, hLPCAT1: 20 μM compound, microsomal fractions of nonstimulated CHO-S-PAFR cells, n = 3, mean ± SEM
T1 construct: expressed in transfected cells
T1 sequence (Q8NF37 1-534): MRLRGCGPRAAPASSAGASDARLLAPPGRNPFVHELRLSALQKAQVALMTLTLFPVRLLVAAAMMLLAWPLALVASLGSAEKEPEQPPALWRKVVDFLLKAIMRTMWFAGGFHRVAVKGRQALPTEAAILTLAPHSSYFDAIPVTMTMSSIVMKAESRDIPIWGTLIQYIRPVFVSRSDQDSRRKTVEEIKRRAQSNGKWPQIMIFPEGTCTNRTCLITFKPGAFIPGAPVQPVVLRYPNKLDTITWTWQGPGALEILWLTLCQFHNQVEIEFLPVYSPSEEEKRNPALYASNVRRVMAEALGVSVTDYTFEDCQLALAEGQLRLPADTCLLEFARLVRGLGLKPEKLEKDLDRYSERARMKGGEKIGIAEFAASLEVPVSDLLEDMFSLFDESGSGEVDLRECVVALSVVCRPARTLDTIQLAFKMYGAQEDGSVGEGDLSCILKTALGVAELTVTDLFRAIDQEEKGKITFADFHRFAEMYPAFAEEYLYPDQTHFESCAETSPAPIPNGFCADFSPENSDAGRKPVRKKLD
Method: (§1) Microsomal protein fractions (0.5 μg) supplemented with the indicated compound concentrations were added to the reaction mixture containing 100 mM Tris-HCl (pH 7.4), 1 μM CaCl2, 0.015% Tween-20, and two substrates. For acetyltransferase activity, the substrates were 1 mM acetyl-CoA and 5 μM d4-lyso-PAF; for the acyltransferase activity of LPCAT1 or LPCAT2, the substrates were, respectively, palmitoyl-CoA and d31-16:0 LPC or arachidonoyl-CoA and d4-lyso-PAF (all 5 μM). Each lysophospholipid contained fatty acid at the sn-1 position. After incubation at 37°C for 5 min, the reactions were stopped by adding 300 μl methanol containing 17:0 LPC or 14:0/14:0 PC as an internal standard. Deuterium-labeled products were analyzed by LC-MS/MS (Waters, Milford, MA and Thermo Scientific, Waltham, MA). […]
Steps 2 to 5 screening: 96-well plate assay
Acetyltransferase and acyltransferase assays were developed in 96-well plates. The microsomal hLPCAT2, obtained from mcPAF-stimulated CHO-S-PAFR cells was used in steps 1, 2, and 5. The microsomal hLPCAT1 obtained from unstimulated CHO-S cells was used in steps 3 to 5. Each well of the 96-well plates contained 30 µl of 15 µg/ml protein, 600 nl of 2 mM compound, 30 µl buffer C, and two substrates (Fig. 1B and C).
Substrate concentrations were as follows: acetyl-CoA, 250 or 1000 µM acetyl-CoA; […]
arachidonoyl-CoA, 5 µM; palmitoyl-CoA, 5 µM; d4-lyso-PAF, 5 µM; and d31-LPC, 5 µM.
For step 5, compound concentrations were 0, 0.167, 0.67, 2, 6.7, and 20 µM. The deuterium-labeled products were measured by LC-MS/MS. Percentage inhibition (steps 2 to 4) or IC50 (step 5) was used as the hit criterion. […]
(§2) Step 7 screening: species-specific differences
(§3) To evaluate the effects on the activity of mouse or human LPCAT1 and LPCAT2, each microsomal fraction was obtained using CHO-S-PAFR cells with or without mcPAF (200 nM) stimulation for 5 min. Acetyltransferase and acyltransferase assays were performed with 20 µM of each compound. Percentage inhibition was calculated in each

mLPCAT2 = target: T2, mLPCAT2 (Mus musculus, UniProt Q8BYI6); assay: acyltransferase activity assay, 16:0/20:4 alkyl-PC product; assay type: biochemical; conditions: 20 μM compound; microsomal fractions of nonstimulated CHO-S-PAFR cells; n = 3, mean ± SEM
T2 construct: expressed in transfected cells; host or cells: CHO-S-PAFR cells, microsomal fraction, with or without mcPAF stimulation
T2 sequence (Q8BYI6 1-544): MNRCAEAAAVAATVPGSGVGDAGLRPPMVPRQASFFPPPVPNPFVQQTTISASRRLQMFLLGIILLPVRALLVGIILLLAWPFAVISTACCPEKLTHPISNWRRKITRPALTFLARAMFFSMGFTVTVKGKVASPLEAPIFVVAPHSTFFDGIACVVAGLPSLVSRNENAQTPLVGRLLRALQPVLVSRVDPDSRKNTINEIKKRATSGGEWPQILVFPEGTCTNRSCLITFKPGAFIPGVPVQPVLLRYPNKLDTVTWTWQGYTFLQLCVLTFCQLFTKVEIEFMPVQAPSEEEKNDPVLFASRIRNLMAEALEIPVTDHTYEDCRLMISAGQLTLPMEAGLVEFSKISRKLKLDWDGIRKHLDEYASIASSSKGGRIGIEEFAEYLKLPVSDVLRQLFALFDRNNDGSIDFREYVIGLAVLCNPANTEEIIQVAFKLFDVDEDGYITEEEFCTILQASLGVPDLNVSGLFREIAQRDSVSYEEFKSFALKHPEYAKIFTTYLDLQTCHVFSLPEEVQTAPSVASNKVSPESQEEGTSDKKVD
Method: as §1
arachidonoyl-CoA, 5 µM; palmitoyl-CoA, 5 µM; d4-lyso-PAF, 5 µM; and d31-LPC, 5 µM. […]
deuterium-labeled products were measured by LC-MS/MS. […]
as §2, §3

Row | Compound | IC50 (hLPCAT1) [µM] | percentage inhibition, product DPPC, hLPCAT1 (hLPCAT1) [percentage] | percentage inhibition, product 16:0/20:4 Alkyl-PC, mLPCAT2 (mLPCAT2) [percentage]
1 | CC(C)OC(=O)c1ccc(N2C(=O)C(Cl)=C(Cl)C2=O)cc1 [TSI-01, propan-2-yl 4-(3,4-dichloro-2,5-dioxopyrrol-1-yl)benzoate] | > 20 | 25.3 ± 8.7 | 95.5 ± 1.8
2 | O=C1C(Cl)=C(N2CCOCC2)C(=O)N1c1ccc(Oc2ccccc2)cc1 [TSI-02, 3-chloro-4-morpholin-4-yl-1-(4-phenoxyphenyl)pyrrole-2,5-dione] | > 20 |  | 

Continued, values first:

Row | IC50 (hLPCAT1) [µM] | percentage inhibition, product DPPC, hLPCAT1 (hLPCAT1) [percentage] | percentage inhibition, product 16:0/20:4 Alkyl-PC, mLPCAT2 (mLPCAT2) [percentage] | Compound
3 | > 20 | 19.5 ± 8.0 | 82.4 ± 5.7 | CC(C)OC(=O)c1ccc(N2C(=O)C(Cl)=C(Nc3ccccc3O)C2=O)cc1 [TSI-07]
4 | > 20 | 23.9 ± 3.4 | 86.7 ± 5.2 | CCCOC(=O)c1ccc(N2C(=O)C(Cl)=C(Cl)C2=O)cc1 [TSI-10]
5 | > 20 | 14.2 ± 4.8 | 83.0 ± 3.5 | CCCCOC(=O)c1ccc(N2C(=O)C(Cl)=C(Cl)C2=O)cc1 [TSI-11, butyl 4-(3,4-dichloro-2,5-dioxopyrrol-1-yl)benzoate]
